Measured values as given in patent publication US10660935B2, “Methods for ameliorating memory impairment in a memory disorder caused by neuronal cell death or Abeta aggregation using a peptide” (JAPAN BIO PRODUCTS Co., Ltd., priority 2017, dated 2020).

Assays:
[1] = tested on: Aβ25-35-treated murine cerebral cortical neural cells; assay: Quantitative experiment for dendritic elongation; type: cell-based, ddY mouse; conditions: compared with Vehicle
Protocol: (§1) Murine cerebral cortical neural cells were prepared by the following method. Fetuses extracted from a 14-day […] ddY mouse (Japan SLC, Shizuoka) were washed with PBS, then decapitated, and added in a medium made for primary culture [12% equine serum (Life Technologies), 2 mM L-glutamic acid, and 0.6% glucose dissolved in Neurobasal media (Life Technologies, Carlsbad, Calif., USA)]. Only cerebral cortex was isolated in the medium under a stereomicroscope (SZ-61, Olympus, Tokyo).
(§2) Cerebral cortex was cut into about 1 mm-sized cubes in a safety cabinet. Centrifugation was performed at 700 rpm for 3 minutes, then the supernatant was removed, and to the precipitate was added 2 mL of 0.05% trypsin-0.53 mM EDTA solution (Life Technologies) to make a suspension. The suspension was incubated at 37° C. for 15 minutes with stirring for every 5 minutes, loaded with 4 mL of the medium, centrifuged at 700 rpm for 3 minutes to remove the supernatant, and to the precipitate was added 2 mL of 600 U/mL DNase I (Wako Pure Chemical Co., Ltd)-0.03% trypsin inhibitor (Life Technologies)-PBS solution to make a suspension.
(§3) The suspension was further incubated at 37° C. for 15 minutes with stirring for every 5 minutes, loaded with 4 mL of the medium, and centrifuged at 700 rpm for 3 minutes. The sediment was loaded with 4 mL of a calcium-magnesium-free Hank's balanced salt solution (HBSS), and centrifuged at 700 rpm for 3 minutes. 4 mL of the medium was added to the sediment.
The sediment loaded with the medium was gently suspended with a Pasteur pipette in which its tip had been heated and smoothed, until the cell clumps were invisible, and then filtrated with a 70 μm nylon cell strainer (Falcon, N.J., USA). Cell culture was performed in an 8-well chamber slide (falcon). Cells were seeded into the one coated the day before [in which Poly-D-Lysine (PDL, Wako Pure Chemical Co., Ltd) diluted with PBS to 0.005 mg/mL was plated and incubated at 37° C.; on the day of culture, it was washed twice with sterilized purified water.] Culture was started at 37° C. and 10% CO2 under saturated vapor.
In quantitative experiment for dendritic elongation, the medium was all changed with a fresh medium containing B-27 supplement (Invitrogen) instead of equine serum 5 hours and 3 days after start of culture. At medium change after 3 days, the pre-aggregated partial sequence fragment of amyloid beta (Aβ25-35) was added up to 10 μM. After another 3 days, each peptide or solvent was added when the medium was all changed into a fresh one, and after another 4 days, immunostaining was performed.
Immunostaining for quantifying dendritic elongation was performed as follows. After the end of the drug treatment term, the medium was removed and the cells were washed with PBS, added with 4% paraformaldehyde (PFA, Wako Pure Chemical Co., Ltd)-PBS solution, left standing at room temperature for an hour, and fixed. Wash with 0.3% triton X-100 (Wako Pure Chemical Co., Ltd)-PBS solution for 5 minutes was performed twice. Then, a primary antibody solution (0.3% triton X-100-PBS solution, 1% normal goat serum [Wako Pure Chemical Co., Ltd], a primary antibody) was added, and reacted at 4° C. overnight.
For the primary antibody, rabbit anti-MAP2 polyclonal antibody (1:2000) (Abcam, Cambridge, UK) was used. The next day, the primary antibody solution was removed; wash was performed twice with 0.3% triton X-100-PBS solution for 5 minutes; and then a secondary antibody solution [0.3% triton X-100-PBS solution, Alexa Fluor 488-labeled goat anti-rabbit IgG antibody (1:200) (Molecular Probes, Eugene, Oreg., USA)] was added, and reacted under shading at room temperature for 2 hours. After the reaction, the secondary antibody solution was removed, and the cells were washed twice with PBS for 5 minutes, stained for nuclei with DAPI staining, and then embedded with Aqua-Poly/Mount (Polysciences, Warrington, USA). […]

5XFAD mice = assay: Object recognition memory test; type: in vivo, mouse; conditions: continuous intraventricular infusion for 28 days keeping 10 nM in cerebrospinal fluid, 24 hours interval between training and testing, P<0.05
Excerpt: Alzheimer's disease model mice: Transgenic mice that are animal models for Alzheimer's disease (5XFAD) were obtained from the Jackson Laboratories (Bar Harbor, Me., USA). 5XFAD mice overexpress human APP695 cDNA having mutations of Swedish (K670N and M671L), Florida (I716V), and London (V717I), and human PS1 cDNA (mutations at M146L and L286V) under transcriptional control of the neuron-specific murine Thy-1 promoter (Oakley, H. et al., J Neurosci, 26, 10129-10140, 2006). Those were maintained by crossing B6/SJL F1 breeders with hemizygous transgenic mice. […]
GPPGPAG (SEQ ID NO: 1) was dissolved in an artificial cerebrospinal fluid, and an osmotic minipump model 1004 (ALZET Osmotic Pumps, Cupertino, USA) containing the solution inserted and fixed into the right lateral ventricle of each 5XFAD mouse to inject the solution into the lateral ventricle continuously for 28 days. […] Specifically, from a peptide flow of 0.11 μL/h from the pump and a production of cerebrospinal fluid of 18 μL/h in the mouse, the concentration of the peptide solution was calculated such that the peptide concentration in the murine cerebrospinal fluid would be kept at 10 nM (which was an effective concentration in the cell experiments), and the solution prepared thereby was loaded into the pump. […]

[2] = tested on: Aβ25-35-treated murine cerebral cortical neural cells; assay: Quantitative experiment for presynaptic density; type: cell-based, ddY mouse; conditions: 21-day culture
Protocol: as §1, §2, §3
The sediment loaded with the medium was gently suspended with a Pasteur pipette in which its tip had been heated and smoothed, until the cell clumps were invisible, and then filtrated with a 70 μm nylon cell strainer (Falcon, N.J., USA). Cell culture was performed in an 8-well chamber slide (falcon). […]
Immunostaining for quantifying presynaptic density was performed as follows. […]

[3] = posttreatment with 1 nM peptide for 4 days after 10 μM Aβ25-35 for 3 days
[4] = posttreatment with 10 nM peptide for 4 days after 10 μM Aβ25-35 for 3 days

How did the “density of dendrites (length of MAP2-positive dendrites per neural cell)” value [1, 3] turn out when “GPPGPP: comparison peptide of amino acid sequence GPPGPP (SEQ ID NO: 3) (P3)” was run?
Its value is “neither treatment with 1 nM nor 10 nM was any effect observed”.

And the “density of dendrites (length of MAP2-positive dendrites per neural cell)” value [1, 4]?
The value was “neither treatment with 1 nM nor 10 nM was any effect observed”.

How did the “density of dendrites (length of MAP2-positive dendrites per neural cell)” value [1, 3] turn out when GPPGPPG (P2) was run?
Its value is “neither treatment with 1 nM nor 10 nM was any effect observed”.

And the “density of dendrites (length of MAP2-positive dendrites per neural cell)” value [1, 4]?
The value was “neither treatment with 1 nM nor 10 nM was any effect observed”.

Which results are given for “PPGPAG: comparison peptide of amino acid sequence PPGPAG (SEQ ID NO: 5) (P5)”?
density of dendrites (length of MAP2-positive dendrites per neural cell) [1, 3]: neither treatment with 1 nM nor 10 nM was any effect observed; density of dendrites (length of MAP2-positive dendrites per neural cell) [1, 4]: neither treatment with 1 nM nor 10 nM was any effect observed

What does the source list for GPPGPAG (P1)?
density of dendrites (length of MAP2-positive dendrites per neural cell) [1, 4]: significant increase in density of dendrites; exploratory preferential index at the testing stage relative to the training stage (5XFAD mice): significantly increased; presynaptic density on dendrites (synaptophysin-positive area per dendrite length) ([2]; posttreatment with 1 nM, 10 nM and 100 nM, 10 μM Aβ25-35 for 3 days, peptide for 4 days): concentration-dependent increase in presynaptic density; presynaptic density on dendrites (synaptophysin-positive area per dendrite length) ([2]; posttreatment with 10 nM, 10 μM Aβ25-35, compared with Vehicle): significant increase; presynaptic density on dendrites (synaptophysin-positive area per dendrite length) ([2]; posttreatment with 100 nM, 10 μM Aβ25-35, compared with Vehicle): significant increase

Which “density of dendrites (length of MAP2-positive dendrites per neural cell)” value [1, 3] does the source give for “GPPGPA: comparison peptide of amino acid sequence GPPGPA (SEQ ID NO: 4) (P4)” here?
The value was “neither treatment with 1 nM nor 10 nM was any effect observed”.

And the “density of dendrites (length of MAP2-positive dendrites per neural cell)” value [1, 4]?
The value was “neither treatment with 1 nM nor 10 nM was any effect observed”.
